From patent US3958011A, “Compositions of tri-n-propylacetic acid and salts thereof and treatment of neurological disorders with such compositions” (priority 1972, dated 1976)

Key:
[1] = Acute toxicity (LD50), technique of Karber and Behrens; conditions: mouse, in vivo, ip
Protocol: (§1) The LD50 was determined on the mouse by intraperitonel route using the technique of KARBER and BEHRENS.

mouse = assay: as above; conditions: intraperitoneal LD50, in words
Protocol: as §1

[2] = Rota rod test (neurotoxicity); assay type: in vivo; conditions: mouse, ip, mice, intraperitoneal, 30 min after administration, read-out: NTD50 (neurotoxic dose 50) in the rota rod test
Protocol: The test used was that known as the rota rod test (BOISSIER-Therapie 1958, XIII, pp. 1074-1118). This test aims at enabling the animals' ability to coordinate their movements to be evaluated. It is carried out on batches of 10 mice each weighing about 25 g. The compound to be tested is administered by intraperitoneal route to the animals of each batch so that each batch receives a higher dose than that given to the preceding batch. Thirty minutes after administration, the mice are placed for two minutes on a wooden roller of 4.8 cm diameter which turns at the rate of 4 revolutions per minute. The roller has a rough surface to prevent the animals from slipping.
By this means, the neurotoxic dose 50 (NTD 50) can be determined, i.e. the dose of the compound with which one half of the animals can no longer stay on the roller during the period of time fixed as the reference period.
In order to obtain an activity index figure 30 minutes after administration the rota rod test described above was also performed using for comparison a known myorelaxant, namely mephenesin.

mice [3] = assay: Pentylenetetrazol-induced seizure (anticonvulsant action); assay type: in vivo, mice (OF 1); conditions: Mus musculus, ip, i.p., 125 mg/kg pentylenetetrazol i.p.
Protocol: The purpose of this test which is carried out on mice is to determine whether the compounds of the invention, when given preventively by intraperitoneal route, are capable at certain doses of protecting some of the animals against the epileptic seizure produced by an adequate and predetermined dose of pentylenetetrazol which would be 100% fatal in the absence of the compound. The test was carried out on batches of 10 male OF 1 mice weighing about 25 g.

mice [4] = assay: Maximum electroshock seizure (anticonvulsant action); assay type: in vivo, mice (OF 1)
Protocol: This seizure is characterized in the mouse by extension of the back paws for 5 to 10 seconds. The extension is similar to that observed during the tonicoclonic seizures provoked by chemical convulsants such as pentylenetetrazol or strychnine.
The test was carried out on batches of 10 mice of the OF 1 strain weighing about 22 g. […] Fifteen minutes later, each animal received an electric shock of twice threshold intensity (about 60 volts).
This latter value is indicated by the symbol HD50 or hypnotic dose 50 and the efficacy index by the fraction: [formula]

mice [5] = assay: Posture reflex (hypnotic properties); assay type: in vivo, mice (OF 1); conditions: Mus musculus, ip, i.p., read-out: HD50, loss of posture reflex
Protocol: Male mice of the OF 1 strain, weighing about 25 g. were divided into batches of 10. The animals of each batch were given an intraperitoneal dose of the compound to be studied so that each batch received a higher dose than the preceding batch.
The numbers of animals which lost the reflex at various times after administration were noted.
In this way, the HD50 at different times after administration was determined i.e. the dose of the compound under study which caused 50% of the animals to lose the posture reflex at a given time after administration.

mice [6] = assay: Chimney test (tranquillizing properties); assay type: in vivo; conditions: Mus musculus, ip; 50% failed to get out of the test-tube within 30 seconds
Protocol: This test enables two groups of factors to be evaluated namely neuromuscular factors (muscular strength, agility, coordination of movements) and psychological factors (curiosity, fright, flight instinct).
It was carried out on batches of 10 mice weighing about 25 g each. The compound to be studied was given to each batch by intraperitoneal route so that each batch received a higher dose than the preceding batch. The mice were placed, one after another, head first in a test-tube 30 cm long and calibrated in accordance with the size of the mouse so that by moving backwards the animal could get out of the tube in less than 30 seconds. The number of animals which were unable to do this was noted.

mice [7] = assay: Hole-board test (tranquillizing properties); assay type: in vivo, mice (OF 1); conditions: for Total number of holes explored: batch of 10
Protocol: This test enables a quantitative evaluation to be made of the exploring capabilities of mice in relation to their curiosity. The material comprises a board 40 cm × 40 cm and 1.7 cm thick in which 16 holes, 3 cm in diameter, have been cut. The board is placed upon four legs sufficiently high (1.5 m) for the holes to appear bottomless to the animals. The experiment is carried out in as great a silence as possible.
The test was performed on batches of 10 male OF 1 mice weighing about 23 g. The animals of each batch were given an intraperitoneal dose of the compound to be tested so that each batch received a higher dose than the preceding batch. […] Thirty minutes after administration, each batch was placed in the middle of the board and the total number of holes explored by each batch was noted every minute for 5 minutes.

rats = assay: Anoxic seizure induced by gallamine triiodoethylate (antianoxic properties); assay type: in vivo, rats (OFA); conditions: 2 millimols/kg
Description: The injection of a sufficient dose of a synthetic curariform substance such as gallamine triiodoethylate provokes in the rat paralysis of the diaphragm. The animal then dies by asphyxia.
Male rats of the OFA strain and weighing about 250 g. were first anesthetized with ether in order to enable tracheotomy to be performed and cortical electrodes to be inserted. Each rat was then maintained under conditions of artificial respiration by means of an appropriate apparatus and a paralysing dose of gallamine triiodoethylate was administered by intraperitoneal route to eliminate spontaneous breathing. The electrocorticogram, the electrocardiogram and the rectal temperature were registered. After a period of 30 minutes during which stabilization of the registrations was obtained the animal was treated with 2 millimols/kg of an oily solution of tri-n-propylacetic acid or an aqueous solution of one of its alkali metal salts. The artificial respiratory apparatus was stopped 5 minutes after treatment and note was taken of the cardiac frequency every 10 seconds as well as of the period of time between the stopping of the apparatus and the appearance of the flat tracing on the electrocorticogram. This period of time represents the period of survival of the animal. The value of the cardiac frequency corresponding to moment of appearance of the flat tracing was calculated by extrapolation.
The same test was performed on control animals but without administration of a compound of the invention.

[8] = 0.25 h, 15 min. after administration
[9] = 0.5 h, 30 min. after administration

SMILES: CCCC(CCC)(CCC)C(=O)[O-].[Na+] [Sodium tri-n-propylacetate, sodium tri-n-propylacetate]
- LD50 [1]: 327 mg/kg
- selectivity ratio [1]: 20 to 80
- Acute toxicity compared with diazepam (mouse): much less toxic than diazepam
- TD50 at 0.5 h [2]: 120 mg/kg
- ED50 (mice [3]; 0.125 h, 7 min. 30 sec after administration): 78 mg/kg
- ED50 (mice [3]; [8]): 66 mg/kg
- ED50 (mice [3]; [9]): 110 mg/kg
- ED50 (mice [4]; Mus musculus, ip, 0.25 h, i.p., 15 min after administration, protection of 50% against tonic seizures): 130 mg/kg
- Efficacy index (HD50 compared with ED50) (mice [4]; electroshock ED50 versus hypnotic dose 50): 1.0
- ED50 (mice [5]; [8]): 120 mg/kg
- ED50 (mice [5]; [9]): 130 mg/kg
- ED50 (mice [5]; 0.75 h, 45 min. after administration): 150 mg/kg
- ED50 (mice [5]; 1 h, 60 min. after administration): 200 mg/kg
- ED50 (mice [6]): 72 mg/kg
- Total number of holes explored (mice [7]; 50 mg/kg i.p., 1 min.): 15
- Total number of holes explored (mice [7]; 50 mg/kg i.p., 2 min.): 13
- Total number of holes explored (mice [7]; 50 mg/kg i.p., 3 min.): 14
- Total number of holes explored (mice [7]; 50 mg/kg i.p., 4 min.): 19
- Total number of holes explored (mice [7]; 50 mg/kg i.p., 5 min.): 17
- Total number of holes explored (mice [7]; 75 mg/kg i.p., 1 min.): 2
- Total number of holes explored (mice [7]; 75 mg/kg i.p., 2 min.): 6
- Total number of holes explored (mice [7]; 75 mg/kg i.p., 3 min.): 3
- Total number of holes explored (mice [7]; 75 mg/kg i.p., 4 min.): 1
- Total number of holes explored (mice [7]; 75 mg/kg i.p., 5 min.): 7
- Effect on the animals' curiosity (mice [7]; hole-board test, in words): tends to reduce the animals' curiosity
- Increase of period of survival versus controls (rats): 19%
- Period of survival (rats; controls 74.3 ± 2.3): 87.9 ± 3.7 s
- Cardiac frequency when the flat tracing appears (rats; controls 150, calculated by extrapolation): 109
